30 compounds from patent US20250313535A1, “ALPHA 4 BETA 7 INTEGRIN MODULATORS AND USES THEREOF” (DICE MOLECULES SV, INC., priority 2022, published 2025) can be followed below.

A word on the pIC50: it is the IC50 on a negative log10 scale, so that one unit is a factor of ten.

In one assay the target is α4β1 integrin (Homo sapiens (Human), UniProt P05556+P13612). Briefly: Integrin Adhesion Assay: Protocol 5 (VCAM-coated plate, RPMI-8866 cells with stable LOF mutation of the ITGB7 gene). Particulars: Protocol 5; RPMI-8866 cells with LOF mutation of ITGB7, VCAM; read-out: Mean IC50 α4β1 KO. The class given is cell-based. Summed up:
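RPMI-8866 B cells with CRISPR/Cas9 ITGB7 knockout (clonal, verified by flow cytometry) adhered to VCAM-coated wells for 1 h at 37° C in HEPES/NaCl buffer with 1 mM MnCl2, 0.1 mM CaCl2, 1% BSA, 1% DMSO. Bound cells quantified by CellTiter-Glo luminescence after washing; % inhibition versus DMSO and control, 4-parameter fit.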

In another assay the target is α4β7 integrin (Homo sapiens (Human), UniProt P13612+P26010). Briefly: Integrin Adhesion Assay: Protocol 4 (MAdCAM-coated plate, RPMI-8866 cells with stable LOF mutation of the ITGB1 gene). Particulars: Protocol 4; RPMI-8866 cells with LOF mutation of ITGB1, MAdCAM; read-out: Mean IC50 α4β7 KO. The class given is cell-based. Put shortly:
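RPMI-8866 cells with CRISPR/Cas9 knockout of ITGB1 (2×10^6/mL) were added to MAdCAM-coated wells with compound (1% DMSO) in HEPES/NaCl buffer with 1 mM MnCl2, 0.1 mM CaCl2 and 1% BSA, then incubated 1 h at 37 °C. After four washes, adherent cells were quantified by CellTiter-Glo luminescence. Percent inhibition versus DMSO and control compound was fitted to 4-parameter curves.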

pIC50: −log10 of the molar value. A value given as a limit tells only on which side of the number the result lay.

α4β1 integrin, sequence (P13612 34-1032): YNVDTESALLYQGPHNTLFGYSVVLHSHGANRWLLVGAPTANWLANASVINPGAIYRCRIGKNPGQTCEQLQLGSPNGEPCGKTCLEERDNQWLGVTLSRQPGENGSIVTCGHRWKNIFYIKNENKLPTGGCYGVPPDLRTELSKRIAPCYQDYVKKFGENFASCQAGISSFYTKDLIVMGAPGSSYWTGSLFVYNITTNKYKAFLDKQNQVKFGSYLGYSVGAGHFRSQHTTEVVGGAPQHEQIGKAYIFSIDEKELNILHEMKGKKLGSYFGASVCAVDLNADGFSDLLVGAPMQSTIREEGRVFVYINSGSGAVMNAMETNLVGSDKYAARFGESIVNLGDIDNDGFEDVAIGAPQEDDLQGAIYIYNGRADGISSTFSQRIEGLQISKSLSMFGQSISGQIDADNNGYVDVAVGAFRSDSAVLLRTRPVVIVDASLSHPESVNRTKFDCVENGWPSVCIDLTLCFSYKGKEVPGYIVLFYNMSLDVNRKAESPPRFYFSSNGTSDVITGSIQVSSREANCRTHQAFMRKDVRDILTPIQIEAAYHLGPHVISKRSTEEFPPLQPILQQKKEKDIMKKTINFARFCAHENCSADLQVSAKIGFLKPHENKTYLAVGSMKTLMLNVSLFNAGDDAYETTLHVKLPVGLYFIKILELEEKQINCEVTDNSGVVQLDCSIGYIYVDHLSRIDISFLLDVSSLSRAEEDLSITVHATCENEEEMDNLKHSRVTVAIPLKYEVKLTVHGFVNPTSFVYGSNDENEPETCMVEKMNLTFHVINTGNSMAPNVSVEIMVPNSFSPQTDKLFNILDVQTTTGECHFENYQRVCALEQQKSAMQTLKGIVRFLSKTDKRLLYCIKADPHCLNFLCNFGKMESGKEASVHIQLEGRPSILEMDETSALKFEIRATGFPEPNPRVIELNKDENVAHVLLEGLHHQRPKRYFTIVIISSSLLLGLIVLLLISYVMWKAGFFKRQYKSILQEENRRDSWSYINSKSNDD
α4β1 integrin, sequence (P05556 21-798): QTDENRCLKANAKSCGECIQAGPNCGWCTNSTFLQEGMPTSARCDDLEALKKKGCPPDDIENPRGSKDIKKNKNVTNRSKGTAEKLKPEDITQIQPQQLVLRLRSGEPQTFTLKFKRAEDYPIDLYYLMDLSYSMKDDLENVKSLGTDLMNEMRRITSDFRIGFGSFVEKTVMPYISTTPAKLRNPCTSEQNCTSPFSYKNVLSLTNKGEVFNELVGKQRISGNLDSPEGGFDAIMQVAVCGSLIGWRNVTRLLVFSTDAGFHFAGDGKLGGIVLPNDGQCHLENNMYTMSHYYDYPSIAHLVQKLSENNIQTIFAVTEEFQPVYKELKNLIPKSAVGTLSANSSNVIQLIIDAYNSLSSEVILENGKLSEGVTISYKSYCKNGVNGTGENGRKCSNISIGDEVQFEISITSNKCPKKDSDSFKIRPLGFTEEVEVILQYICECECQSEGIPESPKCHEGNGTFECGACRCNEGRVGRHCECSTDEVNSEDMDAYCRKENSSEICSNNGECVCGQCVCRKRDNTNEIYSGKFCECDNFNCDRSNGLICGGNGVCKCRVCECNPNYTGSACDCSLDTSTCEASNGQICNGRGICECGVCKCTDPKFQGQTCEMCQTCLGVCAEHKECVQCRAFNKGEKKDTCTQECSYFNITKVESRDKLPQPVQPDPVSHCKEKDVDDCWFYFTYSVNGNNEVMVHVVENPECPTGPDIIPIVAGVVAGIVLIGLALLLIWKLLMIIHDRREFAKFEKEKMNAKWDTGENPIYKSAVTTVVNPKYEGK
α4β7 integrin, sequence (P13612 34-1032): as the sequence (P13612 34-1032) above
α4β7 integrin, sequence (P26010 20-798): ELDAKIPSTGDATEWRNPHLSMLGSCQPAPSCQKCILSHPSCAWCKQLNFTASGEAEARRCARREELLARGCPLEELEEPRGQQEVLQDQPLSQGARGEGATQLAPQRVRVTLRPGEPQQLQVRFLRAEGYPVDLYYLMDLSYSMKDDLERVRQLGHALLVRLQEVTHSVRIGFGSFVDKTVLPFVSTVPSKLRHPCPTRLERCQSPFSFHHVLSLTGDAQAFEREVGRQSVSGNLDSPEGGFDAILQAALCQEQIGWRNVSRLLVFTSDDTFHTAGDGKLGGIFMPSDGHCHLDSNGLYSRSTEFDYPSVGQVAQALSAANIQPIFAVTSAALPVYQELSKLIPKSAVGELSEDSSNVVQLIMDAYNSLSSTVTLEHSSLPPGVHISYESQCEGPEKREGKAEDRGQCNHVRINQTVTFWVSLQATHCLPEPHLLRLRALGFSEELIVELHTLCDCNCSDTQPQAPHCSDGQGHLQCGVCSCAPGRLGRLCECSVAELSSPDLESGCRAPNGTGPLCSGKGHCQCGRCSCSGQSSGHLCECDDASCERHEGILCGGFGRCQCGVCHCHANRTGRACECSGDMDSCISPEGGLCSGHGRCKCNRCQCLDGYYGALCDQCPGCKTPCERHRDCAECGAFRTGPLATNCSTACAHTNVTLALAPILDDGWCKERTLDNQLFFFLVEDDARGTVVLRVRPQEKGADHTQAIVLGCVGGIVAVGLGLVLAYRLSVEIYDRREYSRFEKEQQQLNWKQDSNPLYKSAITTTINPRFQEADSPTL

As for `CC1(C)CCN(Cc2cnc(-c3cccc4c(C[C@H](NC(=O)C5(C(F)(F)F)CCN(CC(F)(F)F)CC5)C(=O)O)cccc34)c3ccccc23)CC1` [Compound 854], the pIC50 was 6.00 to 7.00 on α4β1 integrin and more than 8.00 on α4β7 integrin.

With `O=C(O)[C@H](Cc1cccc2c(-c3ncc(CN4CCC[C@@H](F)C4)c4ccccc34)cccc12)NC(=O)C1(C(F)(F)F)CCN(CC(F)(F)F)CC1` [Compound 855], the pIC50 is less than 6.00 on α4β1 integrin and 7.00 to 8.00 at α4β7 integrin.

Consider `O=C(O)[C@H](Cc1cccc2c(-c3ncc(CN4CCOC(C(F)(F)F)C4)c4ccccc34)cccc12)NC(=O)C1(C(F)(F)F)CCN(CC(F)(F)F)CC1` (stereo partly drawn) [Compound 856], for which the pIC50 on α4β1 integrin is less than 6.00; at α4β7 integrin it was 7.00 to 8.00.

Consider `O=C(O)[C@H](Cc1cccc2c(-c3ncc(CN4CCC5(CCCCC5)CC4)c4ccccc34)cccc12)NC(=O)C1(C(F)(F)F)CCN(CC(F)(F)F)CC1` [Compound 857], for which the values for the pIC50 at α4β1 integrin and on α4β7 integrin were less than 6.00 and 7.00 to 8.00, respectively.

Regarding `O=C(O)[C@H](Cc1cccc2c(-c3ncc(CN4CCOC(C(F)(F)F)C4)c4ccccc34)cccc12)NC(=O)C1(C(F)(F)F)CCN(CC(F)F)CC1` (stereo partly drawn) [Compound 858], the results for the pIC50 at α4β1 integrin and on α4β7 integrin were less than 6.00 and 7.00 to 8.00, respectively.

In the case of `O=C(O)[C@H](Cc1cccc2c(-c3ncc(CN4CCC[C@H](F)C4)c4ccccc34)cccc12)NC(=O)C1(C(F)(F)F)CCN(CC(F)F)CC1` [Compound 859], the pIC50 is less than 6.00 on α4β1 integrin and more than 8.00 on α4β7 integrin.

On to `O=C(O)[C@H](Cc1cccc2c(-c3ncc(CN4CCC[C@@H](F)C4)c4ccccc34)cccc12)NC(=O)C1(C(F)(F)F)CCN(CC(F)F)CC1` [Compound 860], for which the negative logarithm of the IC50 (pIC50) is less than 6.00 on α4β1 integrin and more than 8.00 on α4β7 integrin.

For the compound `CC1(C)CCN(Cc2cnc(-c3cccc4c(C[C@H](NC(=O)C5(C(F)(F)F)CCN(CC(F)F)CC5)C(=O)O)cccc34)c3ccccc23)CC1` [Compound 861], the negative-log IC50 (pIC50) is 6.00 to 7.00 at α4β1 integrin and more than 8.00 at α4β7 integrin.

Regarding `O=C(O)[C@H](Cc1cccc2c(-c3ncc(CN4CCOCC4)c4ccccc34)cccc12)NC(=O)C1(C(F)(F)F)CCN(CC(F)(F)F)CC1` [Compound 862], the pIC50 at α4β1 integrin was less than 6.00; at α4β7 integrin, more than 8.00.

On to `C[C@@H]1CN(Cc2cnc(-c3cccc4c(C[C@H](NC(=O)C5(C(F)(F)F)CCN(CC(F)(F)F)CC5)C(=O)O)cccc34)c3ccccc23)C[C@H](C)O1` [Compound 863], for which the results for the pIC50 on α4β1 integrin and at α4β7 integrin were less than 6.00 and 7.00 to 8.00, respectively.

Take `O=C(O)[C@H](Cc1cccc2c(-c3nccc4cccc(CN5CCCCC5)c34)cccc12)NC(=O)C1(C(F)(F)F)CCN(CC(F)(F)F)CC1` [Compound 864]: the negative logarithm of the IC50 (pIC50) on α4β1 integrin was less than 6.00; on α4β7 integrin, more than 8.00.

Regarding `O=C(O)[C@H](Cc1cccc2c(-c3ncc(CN4CC(F)C4)c4ccccc34)cccc12)NC(=O)C1(C(F)(F)F)CCN(CC(F)(F)F)CC1` [Compound 865], the negative-log IC50 (pIC50) on α4β1 integrin is less than 6.00; at α4β7 integrin it was 7.00 to 8.00.

Turning to `COC1CN(Cc2cnc(-c3cccc4c(C[C@H](NC(=O)C5(C(F)(F)F)CCN(CC(F)(F)F)CC5)C(=O)O)cccc34)c3ccccc23)C1` [Compound 866], the pIC50 is less than 6.00 at α4β1 integrin and more than 8.00 on α4β7 integrin.

For `O=C(O)[C@H](Cc1cccc2c(-c3ncc(CN4CC5CC(C4)O5)c4ccccc34)cccc12)NC(=O)C1(C(F)(F)F)CCN(CC(F)(F)F)CC1` [Compound 867], the pIC50 is less than 6.00 on α4β1 integrin and more than 8.00 on α4β7 integrin.

With `O=C(O)[C@H](Cc1cccc2c(-c3ncc(CN4CCN(C5CC5)CC4)c4ccccc34)cccc12)NC(=O)C1(C(F)(F)F)CCN(CC(F)(F)F)CC1` [Compound 868], the results for the pIC50 on α4β1 integrin and at α4β7 integrin were less than 6.00 and more than 8.00, respectively.

Regarding `O=C(O)[C@H](Cc1cccc2c(-c3ncc(CN4CCCC(F)(F)CC4)c4ccccc34)cccc12)NC(=O)C1(C(F)(F)F)CCN(CC(F)(F)F)CC1` [Compound 869], the pIC50 is less than 6.00 at α4β1 integrin and 7.00 to 8.00 on α4β7 integrin.

With `O=C(O)[C@H](Cc1cccc2c(-c3ncc(CN4CCOCC45CC5)c4ccccc34)cccc12)NC(=O)C1(C(F)(F)F)CCN(CC(F)(F)F)CC1` [Compound 870], the values for the negative-log IC50 (pIC50) on α4β1 integrin and on α4β7 integrin were less than 6.00 and more than 8.00, respectively.

For `O=C(O)[C@H](Cc1cccc2c(-c3ncc(CN4CCC(F)CC4)c4ccccc34)cccc12)NC(=O)C1(C(F)(F)F)CCN(CC(F)(F)F)CC1` [Compound 871], the pIC50 at α4β1 integrin was less than 6.00; on α4β7 integrin, 7.00 to 8.00.

Take `O=C(O)[C@H](Cc1cccc2c(-c3ncc(CN4CC5CCC(C4)O5)c4ccccc34)cccc12)NC(=O)C1(C(F)(F)F)CCN(CC(F)(F)F)CC1` [Compound 872]: the figures for the pIC50 at α4β1 integrin and at α4β7 integrin were less than 6.00 and 7.00 to 8.00, respectively.

Consider `CC1(C)CCCN(Cc2cnc(-c3cccc4c(C[C@H](NC(=O)C5(C(F)(F)F)CCN(CC(F)(F)F)CC5)C(=O)O)cccc34)c3ccccc23)C1` [Compound 873], for which the pIC50 is less than 6.00 on α4β1 integrin and 7.00 to 8.00 on α4β7 integrin.

In the case of `O=C(O)[C@H](Cc1cccc2c(-c3ncc(CN4CCC(C(F)(F)F)CC4)c4ccccc34)cccc12)NC(=O)C1(C(F)(F)F)CCN(CC(F)(F)F)CC1` [Compound 874], the negative-log IC50 (pIC50) at α4β1 integrin was less than 6.00; at α4β7 integrin it was 7.00 to 8.00.

On to `CC1CCN(Cc2cnc(-c3cccc4c(C[C@H](NC(=O)C5(C(F)(F)F)CCN(CC(F)(F)F)CC5)C(=O)O)cccc34)c3ccccc23)CCC1(F)F` (stereo partly drawn) [Compound 875], for which the pIC50 at α4β1 integrin was less than 6.00; on α4β7 integrin, 7.00 to 8.00.

Consider `CC1(C)CCCN(Cc2cnc(-c3cccc4c(C[C@H](NC(=O)C5(C(F)(F)F)CCN(CC(F)(F)F)CC5)C(=O)O)cccc34)c3ccccc23)CC1` [Compound 876], for which the pIC50 on α4β1 integrin was less than 6.00; on α4β7 integrin, more than 8.00.

On to `O=C(O)[C@H](Cc1cccc2c(-c3ncc(CN4CCOCC4)c4ccccc34)cccc12)NC(=O)C1(C(F)(F)F)CCN(CC(F)F)CC1` [Compound 878], for which the pIC50 on α4β1 integrin was 6.00 to 7.00; on α4β7 integrin, more than 8.00.

As to `O=C(O)[C@H](Cc1cccc2c(-c3ncc(CN4CCC(C(F)(F)F)CC4)c4ccccc34)cccc12)NC(=O)C1(C(F)(F)F)CCN(CC(F)F)CC1` [Compound 879], the pIC50 at α4β1 integrin is less than 6.00; at α4β7 integrin it was 7.00 to 8.00.

As for `Cc1cc(CN2CCCCC2)cnc1-c1cccc2c(C[C@H](NC(=O)C3(C(F)(F)F)CCN(CC(F)(F)F)CC3)C(=O)O)cccc12` [Compound 880], the pIC50 on α4β1 integrin was less than 6.00; at α4β7 integrin, more than 8.00.

`O=C(O)[C@H](Cc1cccc2c(-c3ncc(CN4CCCCC4)cc3C(F)(F)F)cccc12)NC(=O)C1(C(F)(F)F)CCN(CC(F)(F)F)CC1` [Compound 881]: the results for the negative-log IC50 (pIC50) on α4β1 integrin and at α4β7 integrin were less than 6.00 and 7.00 to 8.00, respectively.

For `O=C(O)[C@H](Cc1cccc2c(-c3ncc(CN4CCCCC4)cc3C3CC3)cccc12)NC(=O)C1(C(F)(F)F)CCN(CC(F)(F)F)CC1` [Compound 882], the pIC50 on α4β1 integrin was 6.00 to 7.00; at α4β7 integrin it was more than 8.00.

In the case of `O=C(O)[C@H](Cc1cccc2c(-c3ncc(CN4CCC5(CC4)CC5)c4ccccc34)cccc12)NC(=O)C1(C(F)(F)F)CCN(CC(F)(F)F)CC1` [Compound 883], the values for the negative-log IC50 (pIC50) on α4β1 integrin and on α4β7 integrin were less than 6.00 and more than 8.00, respectively.

As for `O=C(O)[C@H](Cc1cccc2c(-c3ncc(CN4C5CCCC4CC5)c4ccccc34)cccc12)NC(=O)C1(C(F)(F)F)CCN(CC(F)(F)F)CC1` [Compound 884], the pIC50 is less than 6.00 at α4β1 integrin and more than 8.00 on α4β7 integrin.
